According to BigSolDB 2.1:

CS(N)(=O)=O
Conditions | solubility (mole fraction)
in ethanol, 283.13 K | 0.0265
in ethanol, 288.18 K | 0.0338
in ethanol, 293.14 K | 0.0412
in ethanol, 298.17 K | 0.0484
in ethanol, 302.16 K | 0.0614
in ethanol, 308.16 K | 0.0792
in ethanol, 313.06 K | 0.1
in ethanol, 318.07 K | 0.132
in ethanol, 323.16 K | 0.181
in ethyl acetate, 283.26 K | 0.0297
in ethyl acetate, 288.16 K | 0.0329
in ethyl acetate, 293.2 K | 0.0373
in ethyl acetate, 298.1 K | 0.0419
in ethyl acetate, 303.18 K | 0.0458
in ethyl acetate, 308.24 K | 0.0507
in ethyl acetate, 313.17 K | 0.0565
in ethyl acetate, 318.07 K | 0.0627
in ethyl acetate, 323.16 K | 0.0684
in isobutanol, 283.2 K | 0.0117
in isobutanol, 288.14 K | 0.0145
in isobutanol, 293.06 K | 0.0174
in isobutanol, 298.36 K | 0.0216
in isobutanol, 303.13 K | 0.026
in isobutanol, 308.14 K | 0.0309
in isobutanol, 313.04 K | 0.0384
in isobutanol, 318.16 K | 0.0481
in isobutanol, 323.04 K | 0.0592
in isopentanol, 283.16 K | 0.00502
in isopentanol, 288.14 K | 0.00747
in isopentanol, 293.16 K | 0.0108
in isopentanol, 298.17 K | 0.0138
in isopentanol, 303.05 K | 0.018
in isopentanol, 308.06 K | 0.0228
in isopentanol, 313.15 K | 0.0288
in isopropanol, 283.06 K | 0.0139
in isopropanol, 288.17 K | 0.0178
in isopropanol, 293.14 K | 0.0221
in isopropanol, 298.08 K | 0.0277
in isopropanol, 303.06 K | 0.0333
in isopropanol, 308.14 K | 0.044
in isopropanol, 313.14 K | 0.0556
in isopropanol, 318.16 K | 0.0704
in isopropanol, 323.04 K | 0.0917
in isopropyl acetate, 283.27 K | 0.0099
in isopropyl acetate, 288.14 K | 0.0112
in isopropyl acetate, 293.16 K | 0.0127
in isopropyl acetate, 298.34 K | 0.0148
in isopropyl acetate, 303.13 K | 0.0169
in isopropyl acetate, 308.1 K | 0.0195
in isopropyl acetate, 313.3 K | 0.0219
in isopropyl acetate, 318.22 K | 0.0251
in isopropyl acetate, 323.27 K | 0.0294
in methanol, 283.27 K | 0.0738
in methanol, 288.1 K | 0.0884
in methanol, 293.2 K | 0.108
in methanol, 298 K | 0.133
in methanol, 303.3 K | 0.163
in methanol, 308.36 K | 0.2
in methanol, 313.13 K | 0.243
in methanol, 318.1 K | 0.286
in methanol, 322.2 K | 0.33
in methyl propionate, 283.27 K | 0.0251
in methyl propionate, 288.27 K | 0.026
in methyl propionate, 293.06 K | 0.0291
in methyl propionate, 298.14 K | 0.0324
in methyl propionate, 303.36 K | 0.036
in n-butanol, 283.1 K | 0.0117
in n-butanol, 288.2 K | 0.0131
in n-butanol, 293.18 K | 0.015
in n-butanol, 298.16 K | 0.0172
in n-butanol, 303.26 K | 0.0218
in n-butanol, 308.06 K | 0.027
in n-pentanol, 283.14 K | 0.00546
in n-pentanol, 288.13 K | 0.00713
in n-pentanol, 293.14 K | 0.00998
in n-pentanol, 298.12 K | 0.0156
in n-pentanol, 303.06 K | 0.0219
in n-propanol, 283.16 K | 0.0125
in n-propanol, 288.14 K | 0.0153
in n-propanol, 293.08 K | 0.0185
in n-propanol, 298.14 K | 0.0213
in n-propanol, 303.12 K | 0.0296
in n-propanol, 308.24 K | 0.0375
in n-propanol, 313.18 K | 0.0471
in n-propanol, 318.24 K | 0.0608
in n-propanol, 323.24 K | 0.08
in n-propyl acetate, 283.07 K | 0.0114
in n-propyl acetate, 288.13 K | 0.0125
in n-propyl acetate, 293.26 K | 0.0141
in n-propyl acetate, 298.04 K | 0.0163
in n-propyl acetate, 303.14 K | 0.0185
in n-propyl acetate, 308.04 K | 0.0214
in n-propyl acetate, 313 K | 0.0243
in n-propyl acetate, 318.07 K | 0.028
in n-propyl acetate, 323.17 K | 0.0322
in sec-butanol, 283.3 K | 0.00628
in sec-butanol, 288.14 K | 0.0112
in sec-butanol, 293.13 K | 0.0166
in sec-butanol, 298.06 K | 0.0224
in sec-butanol, 303.1 K | 0.0284
in sec-butanol, 308.26 K | 0.036
in sec-butanol, 313.06 K | 0.0459
